Source: US20250345356A1, “TIRAPAZAMINE COMPOSITIONS AND METHODS” (priority 2024, published 2025)
Like-named read-outs stand apart in the source and are kept apart here.

What was measured:
[1] = mice, cited from earlier work
[2] = 1-week intravenous study, single dose level of 1 g; cited from earlier work
[3] = cited from earlier work
[4] = test system: advanced head and neck cancer; details: intent-to-treat, with radiotherapy 70 Gy; cited from earlier work
[5] = PK of TPZ and metabolites SR4317 and SR4330 after intra-arterial injection of TPZ in NS vs HPβCD; format: in vivo, Sprague Dawley rats; details: for dose proportionality of plasma concentrations: 3.33 mg/kg vs. 7 mg/kg in either solvent; for reduction of plasma concentrations in the curve of HPβCD than that of NS: after TPZ in 1% HPβCD vs NS; for AUClast, HβC Mean / Cmax, HβC Mean / AUClast, Normal Saline (NS) Mean / Cmax, Normal Saline (NS) Mean: rats
From the text: Purpose of the study: To evaluate the pharmacokinetics (PK) of tirapazamine and its metabolites, SR4317 and SR4330 [Graham, M A et al. Cancer Chemother. Pharmacol. (1997) 40 (1): 1-10], after injection of TPZ in 1% HPβCD or normal saline.
Animals: Twenty-four female (12) and male (12) Sprague Daley (SD) rats, weight 200-250 grams, respectively, with femoral artery and jugular vein cannulated, were purchased from, Taconic. Two extra cannulated male and female rates were used to test tolerability with buffer. Each rate was housed individually to safeguard the vessel catheters.
The study parameters are shown in Table 22. began after a 3-day period of adjustment to the animal facility. The study compound was injected into the femoral artery catheter (FAC at 2-1 m (by slow injection. Blood samples were collected from a jugular vein catheter (JVC) at 6 timepoints: 0 (baseline) and after drug administration at 15 and 30 minutes, 1 hr, 2 hr, and 6 hours. The volume of blood sample for each time point was approximately 0.6 mL. Plasma samples were collected in tubes containing sodium heparin as anti-coagulant. Plasma was prepared and frozen in −80° C. Rats were euthanized after the last blood sample (euthanized after the 6 hr time point).
Male rats were around 250 grams, and female 200 grams. There were 8 groups with Groups 1-4 females, and […]. Each group had 3 rats. TPZ was dissolved in NS or […] at a concentration 0.7 mg/mL.
The concentrations of TPZ and its metabolites, SR4317 and SR4330, in rat plasma samples were analyzed using liquid chromatography Tandem Mass Spectrometry (LC-MS) by Primera Analytical Solutions Corp (Princeton, NJ). Standards for TPZ, SR4317 and SR4330 were provided by Teclison, Inc. (Princeton, NJ) for calibration. All analytical data were reviewed for completeness and accuracy. Data transferred manually was cross-checked against source data which was part of the study raw data.
LC-MS analysis was conducted with Sciex 4000 with a Shimadzu LC-30 System.
The concentration data was imported and plotted with SAS program as ADPC (Analysis Dataset of Pharmacokinetics Concentrations) dataset. PK parameters calculated based on ADPC were output as an Analysis Dataset of Pharmacokinetics Parameters (ADPP) dataset.
PK parameters of each profile were calculated by non-compartmental analysis using SAS programming. BLQ (Below the Limit of Quantification) observation prior to the first measurable concentration was imputed as zero, otherwise, the BLQ observation was left as missing.
An apparent first-order terminal elimination rate constant (Kel) was calculated by linear least-squares regression analysis using at least three points (excluding Cmax) in the terminal log-linear phase. Uniform weighting was adopted when performing regression analysis. Linear-up/log-down approach was utilized to calculate AUC.
A linear model was built to evaluate the effect of solution on the PK parameters, adjusting for sex and dose. The model included sex (F, M), solution type (Normal saline, Hydroxypropyl-beta-Cyclodextrin “HP-beta-CD”), and dose (mg) as fixed effects. Sex and solution type are categorical variables (meaning a variable based on a qualitative, not numerical, property) and dose is a continuous variable (meaning a random variable that can take on an infinite number of values within a certain interval that represents measurable data). Separate models were built for each combination of analyte (TPZ, SR4317 and SR4330) and PK parameters (AUClast and Cmax) using the BY statement, which divides the observations from an input data set into groups for processing.
The difference of lease squared means between solution types was estimated. 95% confidence intervals (CI), and p-values for the difference were presented. The significance level (alpha) was set at 0.05, meaning that a p-value less than 0.05 was considered statistically significant.

[6] = test system: HCC; details: cited from earlier work
[7] = intra-arterial TPZ 3.33 mg/kg in HPβCD
[8] = intra-arterial TPZ 3.33 mg/kg in NS
[9] = intra-arterial TPZ 7 mg/kg in HPβCD
[10] = intra-arterial TPZ 7 mg/kg in NS

Row | Compound | AUClast HβC/NS Ratio (%) ([5]; 3.33 mg/kg) | Cmax HβC/NS Ratio (%) ([5]; 3.33 mg/kg) | dose proportionality of plasma concentrations [5] | AUClast HβC/NS Ratio (%) ([5]; 7 mg/kg) | Cmax HβC/NS Ratio (%) ([5]; 7 mg/kg) | reduction of plasma concentrations in the curve of HPβCD than that of NS [5] | AUClast, HβC Mean [5, 7] | Cmax, HβC Mean [5, 7] | AUClast, Normal Saline (NS) Mean [5, 8] | Cmax, Normal Saline (NS) Mean [5, 8] | AUClast, HβC Mean [5, 9] | Cmax, HβC Mean [5, 9] | AUClast, Normal Saline (NS) Mean [5, 10] | Cmax, Normal Saline (NS) Mean [5, 10] | further results
1 | 2-hydroxypropyl-β-cyclodextrin [HPβCD] | – | – | – | – | – | – | – | – | – | – | – | – | – | – | lethality ([1]; single intravenous dose of up to 2 g/kg): not lethal; acute toxicity ([1]; up to 10 gram/kg intra-peritoneal (i.p.) injection): neither lethal nor did it produce any toxicity; adverse effects [2]: no adverse effects were reported; daily dose considered non-toxic ([3]; at least for 14 days): < 16 g; tolerability ([3]; daily oral doses of 4-8 g for at least 2 weeks): well tolerated and safe; adverse effects ([3]; oral daily doses of 16-24 g for 14 days, healthy volunteers): increased incidence of soft stools and diarrhea
2 | N.N.[Cl][Pt][Cl] [CIS, cisplatin] | – | – | – | – | – | – | – | – | – | – | – | – | – | – | 2-year OS rates [4]: 65.7%
3 | Nc1nc2ccccc2[n+]([O-])n1 [SR4317] | 78.09% | 80.62% | dose proportional effect was observed | 78.86% | 88.17% | 20-30% | 479.96 ng·h/mL | 490.17 ng/mL | 614.61 ng·h/mL | 608.00 ng/mL | 1210.97 ng·h/mL | 1122.67 ng/mL | 1535.52 ng·h/mL | 1273.33 ng/mL | –
4 | Nc1nnc2ccccc2n1 [SR4330] | 73.09% | 77.65% | dose proportional effect was observed | 74.37& % | 89.31% | 20-30% | 99.89 ng·h/mL | 81.88 ng/mL | 136.67 ng·h/mL | 105.45 ng/mL | 385.93 ng·h/mL | 254.83 ng/mL | 518.92 ng·h/mL | 285.33 ng/mL | half-life compared with TPZ and SR4317 ([5]; rat plasma): longer than TPZ and SR4317
5 | COc1cccc2c1C(=O)c1c(O)c3c(c(O)c1C2=O)C[C@@](O)(C(=O)CO)C[C@@H]3O[C@H]1C[C@H](N)[C@H](O)[C@H](C)O1 [doxorubicin] | – | – | – | – | – | – | – | – | – | – | – | – | – | – | necrosis in the HCC within the territory of HAL ([6]; Day 1 post-treatment, tirapazamine 3 mg/kg, doxorubicin 10 mg/kg, transient left HAL): about 5%; pathological changes in HCCs ([6]; Day 7, 10 mg/kg with left HAL): Little to no pathological changes
